Reference: ChEMBL document CHEMBL3045279, “Chiral Synthesis of Pefurazoate Enantiomers and Their Antifungal Activity to Gibberella fujikuroi” (1992)
In brackets after ≈: the same amount, converted by molar mass.

What was measured:
Assay type in all cases: functional
Fusarium fujikuroi [1] = assay: Antifungal activity against Fusarium fujikuroi assessed as mycelial growth inhibition at 5 ppm after 4 days relative to control; settings: 96 h, read-out: GI
Fusarium fujikuroi [2] = assay: Antifungal activity against Fusarium fujikuroi assessed as mycelial growth inhibition after 4 days; settings: 96 h; for EC50: read-out: ED50 (the source's name)
Fusarium fujikuroi [3] = assay: Antifungal activity against Fusarium fujikuroi assessed as mycelial growth inhibition at 0.15 ppm after 4 days relative to control; settings: 96 h, read-out: GI
Fusarium fujikuroi [4] = assay: Antifungal activity against Fusarium fujikuroi assessed as mycelial growth inhibition at 0.31 ppm after 4 days relative to control; settings: 96 h, read-out: GI
Fusarium fujikuroi [5] = assay: Antifungal activity against Fusarium fujikuroi assessed as mycelial growth inhibition at 0.63 ppm after 4 days relative to control; settings: 96 h, read-out: GI
Fusarium fujikuroi [6] = assay: Antifungal activity against Fusarium fujikuroi assessed as mycelial growth inhibition at 1.25 ppm after 4 days relative to control; settings: 96 h, read-out: GI
Fusarium fujikuroi [7] = assay: Antifungal activity against Fusarium fujikuroi assessed as mycelial growth inhibition at 2.5 ppm after 4 days relative to control; settings: 96 h, read-out: GI
Fusarium fujikuroi [8] = assay: Inhibition of ergosterol biosynthesis in Fusarium fujikuroi assessed as [2-14C]-sodium acetate incorporation at 7.35 ppm after 2 hr by liquid scintillation counting analysis relative to control
Fusarium fujikuroi [9] = assay: Inhibition of ergosterol biosynthesis in Fusarium fujikuroi assessed as decrease in ergosterol level in total lipids measuring [2-14C]-sodium acetate incorporation at 0.24 ppm after 2 hr by liquid scintillation counting analysis (reference value: 6 to 12.3%)
Fusarium fujikuroi [10] = assay: Inhibition of ergosterol biosynthesis in Fusarium fujikuroi assessed as increase in 24-methylenedihydrolanosterol level in total lipids measuring [2-14C]-sodium acetate incorporation at 0.24 ppm after 2 hr by liquid scintillation counting analysis (reference value: 4.8 to 7.4%)
Fusarium fujikuroi [11] = assay: Inhibition of ergosterol biosynthesis in Fusarium fujikuroi assessed as decrease in ergosterol level in total lipids measuring [2-14C]-sodium acetate incorporation at 7.35 ppm after 2 hr by liquid scintillation counting analysis (reference value: 6 to 12.3%)
Fusarium fujikuroi [12] = assay: Inhibition of ergosterol biosynthesis in Fusarium fujikuroi assessed as increase in 24-methylenedihydrolanosterol level in total lipids measuring [2-14C]-sodium acetate incorporation at 7.35 ppm after 2 hr by liquid scintillation counting analysis (reference value: 4.8 to 7.4%)
Fusarium fujikuroi [13] = assay: Antifungal activity against Fusarium fujikuroi assessed as mycelial growth inhibition at 10 ppm after 4 days relative to control; settings: 96 h, read-out: GI
Fusarium fujikuroi [14] = assay: Antifungal activity against Fusarium fujikuroi assessed as mycelial growth inhibition at 20 ppm after 4 days relative to control; settings: 96 h, read-out: GI
Fusarium fujikuroi [15] = assay: Antifungal activity against Fusarium fujikuroi assessed as mycelial growth inhibition at 40 ppm after 4 days relative to control; settings: 96 h, read-out: GI
Fusarium fujikuroi [16] = assay: Inhibition of ergosterol biosynthesis in Fusarium fujikuroi assessed as [2-14C]-sodium acetate incorporation at 0.24 ppm after 2 hr by liquid scintillation counting analysis relative to control

C=CCCCOC(=O)C(CC)N(Cc1ccco1)C(=O)n1ccnc1 (racemic) [Pefurazoate]
inhibition of growth at 5 ppm (Fusarium fujikuroi [1]): 100%
MIC (Fusarium fujikuroi [2]): 2.5 µg/mL (≈ 7.24 µM)
EC50 (Fusarium fujikuroi [2]): 0.49 µg/mL (≈ 1.42 µM)
inhibition of growth at 0.15 ppm (Fusarium fujikuroi [3]): 20%
inhibition of growth at 0.31 ppm (Fusarium fujikuroi [4]): 35%
inhibition of growth at 0.63 ppm (Fusarium fujikuroi [5]): 58%
inhibition of growth at 1.25 ppm (Fusarium fujikuroi [6]): 75%
inhibition of growth at 2.5 ppm (Fusarium fujikuroi [7]): 100%

C=CCCCOC(=O)[C@@H](CC)N(Cc1ccco1)C(=O)n1ccnc1 [(R)-(+)-pefurazoate]
inhibition of growth at 5 ppm (Fusarium fujikuroi [1]): 45%
MIC (Fusarium fujikuroi [2]): 1.25 µg/mL (≈ 3.62 µM)
EC50 (Fusarium fujikuroi [2]): 7.35 µg/mL (≈ 21.3 µM)
inhibition at 7.35 ppm (Fusarium fujikuroi [8]): 47%
inhibition at 0.24 ppm (Fusarium fujikuroi [9]): 3.2%
inhibition at 0.24 ppm (Fusarium fujikuroi [10]): 12.2%
inhibition at 7.35 ppm (Fusarium fujikuroi [11]): 1.3%
inhibition at 7.35 ppm (Fusarium fujikuroi [12]): 14.2%
inhibition of growth at 10 ppm (Fusarium fujikuroi [13]): 53%
inhibition of growth at 20 ppm (Fusarium fujikuroi [14]): 63%
inhibition of growth at 40 ppm (Fusarium fujikuroi [15]): 73%
inhibition of growth at 1.25 ppm (Fusarium fujikuroi [6]): 25%
inhibition of growth at 2.5 ppm (Fusarium fujikuroi [7]): 38%

C=CCCCOC(=O)[C@H](CC)N(Cc1ccco1)C(=O)n1ccnc1 [(S)-(-)-pefurazoate]
inhibition of growth at 5 ppm (Fusarium fujikuroi [1]): 100%
MIC (Fusarium fujikuroi [2]): > 40 µg/mL
EC50 (Fusarium fujikuroi [2]): 0.24 µg/mL (≈ 0.695 µM)
inhibition at 0.24 ppm (Fusarium fujikuroi [16]): 87%
inhibition at 0.24 ppm (Fusarium fujikuroi [9]): 0.8%
inhibition at 0.24 ppm (Fusarium fujikuroi [10]): 13.6%
inhibition of growth at 0.15 ppm (Fusarium fujikuroi [3]): 35%
inhibition of growth at 0.31 ppm (Fusarium fujikuroi [4]): 60%
inhibition of growth at 0.63 ppm (Fusarium fujikuroi [5]): 78%
inhibition of growth at 1.25 ppm (Fusarium fujikuroi [6]): 100%
inhibition of growth at 2.5 ppm (Fusarium fujikuroi [7]): 100%
